# Assay results reported in PubChem BioAssay AID2060510 (Molecular Pharmacology Branch, DTP, NCI, 2025).
# Tested on: 439559-082-T-J2-PDC spheroids viability
# Assay: Anticancer human tumor 439559-082-T-J2-PDC patient-derived colon adenocarcinoma cell line growth inhibition [GQUAD]
# Details: for IC50: curve of first compound; for viability, T/C: stronger effect = lower value
# Description: DNA G-quadruplex Stabilizer Agents in Combinations in Complex Spheroids
# A high-throughput screen of multi-cell type tumor spheroids was designed to identify active combinations of DNA G-quadruplex stabilizer agents and targeted small molecules. Complex spheroids include a stromal component modeled by human endothelial cells (HUVEC) and fibroblasts modeled by human mesenchymal stem cells (MSCs). The concentration ranges selected for each drug and investigational agent were based upon clinically achievable concentrations if the clinical Cmax of the agent was known.
# Compounds. The drugs and investigational agents: pidnarulex (CX-5461; NSC782164), APTO-253 (NSC789042), BRACO-19 (NSC847499), peposertib (NSC802822), ceralasertib (NSC780249), elimusertib (NSC800525), camonsertib (NSC841442), AZD-1390 (NSC803789), olaparib (NSC753686), talazoparib (NSC767125), ART-558 (NSC835418), sotorasib (NSC818433), MRTX-1133 (NSC836407), SN-38 (NSC673596), topotecan (NSC609699), etoposide (NSC141540), doxorubicin (NSC123127), gemcitabine (NSC613327), 5-fluorouracil (NSC19893), paclitaxel (NSC125973), vemurafenib (NSC761431), panobinostat (NSC761190), R-306465 (JNJ-16241199; NSC773264), adavosertib (NSC754352), TP-3654 (NSC805149), carboplatin (NSC241240), KSQ-4279 (NSC840948), and staurosporine (NSC755774) were obtained from the National Cancer Institute (NCI) Developmental Therapeutics Program Chemical Repository (34). The FDA-approved anticancer drug set is available from the NCI Developmental Therapeutics Program. […] The stock solutions were prepared in dimethyl sulfoxide (DMSO, Sigma-Aldrich, St. Louis, MO, cat. D2650) at 800-fold the tested concentration and stored at -70 degrees C prior to their use. All drugs and investigational agents were tested over a range starting from a high concentration at or near the clinical Cmax and decreasing in half-log increments. If the clinical Cmax for an agent had not been determined, the highest concentration tested was 10 microM.
# 2.3 Cell Culture. All cells were maintained in an incubator at 37 degrees C and 5% CO2 with 95% humidity. The PDC lines were cultured according to standard operating procedures established by the NCI PDMR. All PDCs were thawed and cultured in Matrigel-coated flasks prepared with a working solution of 1X Ham's F-12 nutrient mix, without supplementation (Invitrogen, cat. 11765054), 100 U/mL penicillin-streptomycin (Invitrogen, cat. 15140122), and 2.5% Matrigel (Corning Inc., cat. 354248) for the first three passages. The 857933-349-R-J2-PDC line was cultured in 6C/Colon 1B media, which includes advanced DMEM/F-12 (Thermo Fisher Scientific, cat. 12634028), 10 mM HEPES (Thermo Fisher Scientific, cat. 15630080), 1X GlutaMAX supplement (Thermo Fisher Scientific, cat. 35050061), 0.1 mg/mL primocin (InvivoGen, cat. ant-pm-2), 10% defined fetal bovine serum, heat inactivated (HyClone Laboratories Inc., cat. SH30070.03HI), 50% L-WRN conditioned media (ATCC, cat. CRL-3276), 1.25 mM N-Acetyl-L-cysteine (Sigma-Aldrich, cat. A9165), 10 mM nicotinamide (Sigma-Aldrich, cat. N0636), 1X B-27 supplement (Thermo Fisher Scientific, cat. 17504044), 1X N-2 supplement (Thermo Fisher Scientific, cat. 17502048), 10 microM Y-27632 dihydrochloride (Tocris Bioscience, cat. 1254), and 50 ng/mL human EGF recombinant protein (Thermo Fisher Scientific, cat. PHG0311). The 485176-168-R4-J1-PDC line was cultured in Panc media, which includes all 6C/Colon 1B media components plus 100 ng/mL human FGF-10 (Thermo Fisher Scientific, cat. 100-26), 500 nM SB-431542 (Selleckchem, cat. S1067), and gastrin (Tocris, cat. 3006).
# […]
# [1] = second compound 0.0316 µM, first compound 0.0316 µM
# [2] = second compound 0.0316 µM, first compound 0.1 µM
# [3] = second compound 0.0316 µM, first compound 0.316 µM
# [4] = second compound 0.0316 µM, first compound 1 µM
# [5] = second compound 0.0316 µM, first compound 3.16 µM
# [6] = second compound 0.0316 µM, first compound 10 µM
# [7] = second compound 0.1 µM, first compound 0.0316 µM
# [8] = second compound 0.1 µM, first compound 0.1 µM
# [9] = second compound 0.1 µM, first compound 0.316 µM
# [10] = second compound 0.1 µM, first compound 1 µM
# [11] = second compound 0.1 µM, first compound 3.16 µM
# [12] = second compound 0.1 µM, first compound 10 µM
# [13] = second compound 0.316 µM, first compound 0.0316 µM
# [14] = second compound 0.316 µM, first compound 0.1 µM
# [15] = second compound 0.316 µM, first compound 0.316 µM
# [16] = second compound 0.316 µM, first compound 1 µM
# [17] = second compound 0.316 µM, first compound 3.16 µM
# [18] = second compound 0.316 µM, first compound 10 µM
# [19] = second compound 1 µM, first compound 0.0316 µM
# [20] = second compound 1 µM, first compound 0.1 µM
# [21] = second compound 1 µM, first compound 0.316 µM
# [22] = second compound 1 µM, first compound 1 µM
# [23] = second compound 1 µM, first compound 3.16 µM
# [24] = second compound 1 µM, first compound 10 µM
# [25] = second compound 3.16 µM, first compound 0.0316 µM
# [26] = second compound 3.16 µM, first compound 0.1 µM
# [27] = second compound 3.16 µM, first compound 0.316 µM
# [28] = second compound 3.16 µM, first compound 1 µM
# [29] = second compound 3.16 µM, first compound 3.16 µM
# [30] = second compound 3.16 µM, first compound 10 µM
# [31] = second compound 10 µM, first compound 0.0316 µM
# [32] = second compound 10 µM, first compound 0.1 µM
# [33] = second compound 10 µM, first compound 0.316 µM
# [34] = second compound 10 µM, first compound 1 µM
# [35] = second compound 10 µM, first compound 3.16 µM
# [36] = second compound 10 µM, first compound 10 µM
# 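Also: spheroids exposed to the agents for 7 days before readout.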
# 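For viability, T/C in this document: percent of luminescence signal in DMSO vehicle wells taken as 100% viability.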
smiles,measurement,setting,value
CC1COCCN1c1cc(C2(O)CC3CCC(C2)O3)c2cnn(-c3ccn[nH]3)c2n1 (stereo unspecified) + CN(C)c1ccc(Nc2c3ccc(NC(=O)CCN4CCCC4)cc3nc3cc(NC(=O)CCN4CCCC4)ccc23)cc1,IC50,second compound 0.0316 µM,0.979 µM
same,IC50,second compound 0.1 µM,1.2 µM
same,IC50,second compound 0.316 µM,0.959 µM
same,IC50,second compound 1 µM,1.16 µM
same,IC50,second compound 3.16 µM,1.08 µM
same,IC50,second compound 10 µM,0.999 µM
same,"viability, T/C",[1],96.5%
same,"viability, T/C",[2],72.1%
same,"viability, T/C",[3],68.3%
same,"viability, T/C",[4],49.8%
same,"viability, T/C",[5],35.8%
same,"viability, T/C",[6],25.6%
same,"viability, T/C",[7],103%
same,"viability, T/C",[8],78.2%
same,"viability, T/C",[9],74.1%
same,"viability, T/C",[10],52.6%
same,"viability, T/C",[11],33.9%
same,"viability, T/C",[12],30.4%
same,"viability, T/C",[13],94.8%
same,"viability, T/C",[14],82.3%
same,"viability, T/C",[15],64.4%
same,"viability, T/C",[16],50.3%
same,"viability, T/C",[17],37%
same,"viability, T/C",[18],30.3%
same,"viability, T/C",[19],80.6%
same,"viability, T/C",[20],86.2%
same,"viability, T/C",[21],75.7%
same,"viability, T/C",[22],52%
same,"viability, T/C",[23],36.6%
same,"viability, T/C",[24],32.4%
same,"viability, T/C",[25],85.6%
same,"viability, T/C",[26],87.5%
same,"viability, T/C",[27],75.5%
same,"viability, T/C",[28],49%
same,"viability, T/C",[29],39.9%
same,"viability, T/C",[30],28.9%
same,"viability, T/C",[31],94.9%
same,"viability, T/C",[32],76.9%
same,"viability, T/C",[33],79.1%
same,"viability, T/C",[34],46%
same,"viability, T/C",[35],35%
same,"viability, T/C",[36],25.4%
CC1COCCN1c1cc(C2(S(C)(=N)=O)CC2)nc(-c2ccnc3[nH]ccc23)n1 (stereo unspecified) + CN(C)c1ccc(Nc2c3ccc(NC(=O)CCN4CCCC4)cc3nc3cc(NC(=O)CCN4CCCC4)ccc23)cc1,IC50,second compound 0.0316 µM,> 10 µM
same,IC50,second compound 0.1 µM,> 10 µM
same,IC50,second compound 0.316 µM,> 10 µM
same,IC50,second compound 1 µM,> 10 µM
same,IC50,second compound 3.16 µM,> 10 µM
same,IC50,second compound 10 µM,> 10 µM
same,"viability, T/C",[1],93.8%
same,"viability, T/C",[2],90%
same,"viability, T/C",[3],92.4%
same,"viability, T/C",[4],86.8%
same,"viability, T/C",[5],89.7%
same,"viability, T/C",[6],65%
same,"viability, T/C",[7],97.1%
same,"viability, T/C",[8],97.4%
same,"viability, T/C",[9],89.9%
same,"viability, T/C",[10],94.7%
same,"viability, T/C",[11],79.9%
same,"viability, T/C",[12],64.4%
same,"viability, T/C",[13],93.3%
same,"viability, T/C",[14],107%
same,"viability, T/C",[15],97.8%
same,"viability, T/C",[16],100%
same,"viability, T/C",[17],93.4%
same,"viability, T/C",[18],64.3%
same,"viability, T/C",[19],100%
same,"viability, T/C",[20],107%
same,"viability, T/C",[21],102%
same,"viability, T/C",[22],86.8%
same,"viability, T/C",[23],84.5%
same,"viability, T/C",[24],67.6%
same,"viability, T/C",[25],105%
same,"viability, T/C",[26],98.9%
same,"viability, T/C",[27],104%
same,"viability, T/C",[28],93.5%
same,"viability, T/C",[29],88.6%
same,"viability, T/C",[30],62.4%
same,"viability, T/C",[31],97.3%
same,"viability, T/C",[32],98.6%
same,"viability, T/C",[33],115%
same,"viability, T/C",[34],106%
same,"viability, T/C",[35],81.8%
same,"viability, T/C",[36],63.7%
COc1ccc([C@@H](O)c2cc(-c3ncnc4cc(N5CCOCC5)ccc34)c(F)cc2Cl)nn1 + CN(C)c1ccc(Nc2c3ccc(NC(=O)CCN4CCCC4)cc3nc3cc(NC(=O)CCN4CCCC4)ccc23)cc1,IC50,second compound 0.0316 µM,> 10 µM
same,IC50,second compound 0.1 µM,> 10 µM
same,IC50,second compound 0.316 µM,> 10 µM
same,IC50,second compound 1 µM,> 10 µM
same,IC50,second compound 3.16 µM,> 10 µM
same,IC50,second compound 10 µM,> 10 µM
same,"viability, T/C",[1],89.5%
same,"viability, T/C",[2],98.3%
same,"viability, T/C",[3],89.1%
same,"viability, T/C",[4],99.7%
same,"viability, T/C",[5],79.5%
same,"viability, T/C",[6],83.8%
same,"viability, T/C",[7],103%
same,"viability, T/C",[8],101%
same,"viability, T/C",[9],93.8%
same,"viability, T/C",[10],96.1%
same,"viability, T/C",[11],88.6%
same,"viability, T/C",[12],76.5%
same,"viability, T/C",[13],95.7%
same,"viability, T/C",[14],92.8%
same,"viability, T/C",[15],89.6%
same,"viability, T/C",[16],79.8%
same,"viability, T/C",[17],84%
same,"viability, T/C",[18],86.7%
same,"viability, T/C",[19],104%
same,"viability, T/C",[20],89.1%
same,"viability, T/C",[21],95.7%
same,"viability, T/C",[22],91.2%
same,"viability, T/C",[23],86%
same,"viability, T/C",[24],76.4%
same,"viability, T/C",[25],94.9%
same,"viability, T/C",[26],108%
same,"viability, T/C",[27],92.6%
same,"viability, T/C",[28],81.1%
same,"viability, T/C",[29],76%
same,"viability, T/C",[30],79.1%
same,"viability, T/C",[31],92.2%
same,"viability, T/C",[32],77%
same,"viability, T/C",[33],93.7%
same,"viability, T/C",[34],71.9%
same,"viability, T/C",[35],86.4%
same,"viability, T/C",[36],73.4%
